Measured values reported in patent US7842682B2, “Boronated metal-phthalocyanines, process for their preparation, pharmaceutical compositions comprising them and use thereof” (L. Molteni & C. Dei Fratelli Alitti, priority 2003, dated 2010).
Entries after “also recorded” stand apart in the source; their conditions may differ.

How the values were obtained:
[1] = system: B16F1 transplanted pigmented melanoma; test: PDT: rate of tumour growth after red light irradiation in melanoma bearing mice; assay type: in vivo, C57/BL6 mice
Description: The tumour response is most evident if the irradiations are carried out at 3 h after injection of the photosensitizer.

[2] = system: melanocytes deriving from murine pigmented melanoma B16-F1; test: Photosensitization of B16-F1 melanocytes, survival by Trypan Blue exclusion test; assay type: cell-based; settings: 24 hrs incubation, DPPC or DOPC liposomal preparation 7 microM; red light 600-750 nm, 50 mW/cm^2; irradiation times as low as 10 min
Description: Irradiations were performed as described above for FIG. 1.
Melanocytes were incubated (24 hrs) with a DPCC or DOPC liposomal phthalocyanine preparation (7 microM). After incubation, the cells were washed with PBS and irradiated with red visible light (600-750 nm, 50 mW/cm^2). Survival was determined after the photo-treatment (18-24 hrs) by the Trypan Blue exclusion test. Results for delivered phthalocyanine are summarised in FIG. 3A (DPPC liposomes) and in FIG. 3B (DOPC liposomes).

[3] = Photostability (photobleaching) under visible light irradiation, spectrophotometric; assay type: physicochemical; settings: irradiated as for FIG. 1; compared with not-boronated (unsubstituted zinc) phthalocyanine
From the text: FIG. 2A: Absorption spectrum and determination of the degraded unsubstituted zinc phthalocyanine, irradiated according to the experimental conditions described above for FIG. 1.
It is known that most phthalocyanines are subjected to a more or less extensive photobleaching under visible light irradiation. It is therefore important to define if the rate constant of this process is too fast, so that the active principle is photodegraded at a high rate, which could negatively interfere with the photosensitization of cells or other substrates. […] Results obtained with a not substituted phthalocyanine are reported. In FIG. 2A as a reference. From comparison of the plots shown in FIGS. 2A and 2B it may be concluded that • 1- the boron substituted molecules prepared according to the present invention are as useful photosensitizers able to absorb red visible light as the unsubstituted ones; • 2- the photobleaching kinetics undergoes only limited changes when the phthalocyanine structure is modified by introduction of boronated groups. […] Assessment of Activity on Biological Substrates

[4] = Pharmacokinetics and tissue distribution in B16-F1 pigmented melanoma bearing mice; assay type: in vivo, C57/BL6 mice
Description: Toward this aim, once tumours had reached the volumes of […], the boronated phthalocyanine as DPPC liposomal preparation (0.75 mg/kg) or as a DOPC liposomal preparation (3 mg/kg) was systemically administered. […]

[5] = system: B16F1 transplanted pigmented melanoma; test: BNCT: rate of tumour growth after thermal neutron irradiation in melanoma bearing mice; assay type: in vivo, C57/BL6 mice
Description: FIG. 7: Rate of tumour growth as a function of post-irradiation time in C57/BL6 mice bearing a B16F1 transplanted pigmented melanoma which have been intravenously injected with 6.0 mg/kg boronated phthalocyanine prepared according to Example 23, as a DOPC liposomal preparation, and at 24 hours from injection were irradiated by thermal neutrons for 20 and 30 min. The growth profile of the radiosensitized pigmented melanoma is compared with that obtained for untreated control mice.

Substance	rate of tumour growth after PDT ([1]; 6.0 mg/kg i.v., DOPC liposomal preparation, 670 nm, 200 mW/cm^2, 250 J/cm^2)	tumour response by interval between injection and irradiation ([1]; irradiations carried out at 3 h after injection of the photosensitizer)	cell survival after photo-treatment [2]	photobleaching [3]	clearance from plasma ([4]; DPPC liposomes 0.75 mg/kg or DOPC liposomes 3 mg/kg, systemically administered)	clearance from liver and spleen ([4]; delivered via DOPC liposomes, after 1 week from injection)	recovery from liver and spleen ([4]; delivered via liposomes)	amount found in the skin (peritumoural tissue) ([4]; mouse, in vivo)	recovery from the kidneys ([4]; mouse, in vivo)	tumour necrosis after BNCT ([5]; 6.0 mg/kg i.v. in DOPC liposomes, thermal neutrons at 24 h)	tumour growth after BNCT ([5]; 6.0 mg/kg i.v. in DOPC liposomes, thermal neutrons at 24 h for 20 and 30 min, versus untreated control mice)	amount of phthalocyanine accumulated in the tumour ([5]; 24 h after i.v. injection in DOPC liposomes)
1,8(11),15(18),22(25)-tetrakis-{[4-(^11B-o-carboran-1-yl)methyl]phenoxy}-phthalocyaninate zinc(II) [Example 21]	significant delay in the rate of tumour growth	most evident	almost complete cell mortality	more extensive photobleaching	rapid with no product residue at 24 hrs after the treatment	largely cleared	large recovery; also recorded: accumulated in large amounts	small amounts	Very limited amounts	–	–	–
1,8(11),15(18),22(25)-tetrakis-{[4-(^10B-o-carboran-1-yl)methyl]phenoxy}phthalocyaninate zinc(II) [Example 23]	–	–	–	–	–	–	–	–	–	extensive tumour necrosis	significant delay in tumour growth	sufficient to achieve the BNCT effect
